# Several values for one entry are separate records, joined by “and”; a condition that tells them apart may be missing. Identical values can stand only once. Counter-ions that a name gives are not always drawn. *1 amine or outer side, *2 acyl side, *3 side chain or, on linkers, in order; H or OH if unused. Where a SMILES comes first, the peptide text is derived from it. Bridges are numbered along the chain shown (N, C = ends). [ ]: non-standard residue; d: D form. The star is where a group is joined. hTyr(3S-OH,4S-OH,3'-OSO3H) = N[C@H](C(=O)O)[C@H](O)[C@@H](O)c1ccc(O)c(OS(=O)(=O)O)c1; Orn(4R-OH,5R-OH) = O=C([C@H](C[C@@H](O)[C@@H](O)N[*:3])N[*:1])[*:2]; Pro(3S-OH,4S-Me) = C[C@H]1CN[C@H](C(=O)O)[C@H]1O; X1 = CCCCCOc1ccc(-c2cc(-c3ccc(C(=O)*)cc3)no2)cc1; Gln(3R-OH) = NC(=O)C[C@@H](O)[C@H](N)C(=O)O; Hyp = O=C(O)[C@@H]1C[C@@H](O)CN1
# Target: interaction between cTnC and switch peptide of cTnI (cTnISP) (Homo sapiens, UniProt P63316)
# Assay: Fluorescence polarization HTS and dose-response, cTnC/FAM-cTnISP
# Type: binding
# Conditions: not given
row,SMILES,FP (mP)
1,O=[N+]([O-])c1ccc(CNc2nc(NCc3cccc(C(F)(F)F)c3)nc3nc[nH]c23)cc1 [TNP],90.9

# Same assay, conditions: cTnISP primary screen, ENZO Screenwell library, single concentration 50 μmol/L
row,SMILES,FP (mP)
1,CCN(CC)CCOc1ccc(C(=C(Cl)c2ccccc2)c2ccccc2)cc1 [Clomiphene Citrate],63.2
2,CC(C)/N=c1\cc2n(-c3ccc(Cl)cc3)c3ccccc3nc-2cc1Nc1ccc(Cl)cc1 [Clofazimine],85.2
3,"CCCCCOc1ccc(-c2cc(-c3ccc(C(=O)N[C@H]4C[C@@H](O)[C@@H](O)NC(=O)[C@@H]5[C@@H](O)[C@@H](C)CN5C(=O)[C@H]([C@H](O)CC(N)=O)NC(=O)[C@H]([C@H](O)[C@@H](O)c5ccc(O)c(OS(=O)(=O)O)c5)NC(=O)[C@@H]5C[C@@H](O)CN5C(=O)[C@H]([C@@H](C)O)NC4=O)cc3)no2)cc1 [Micafungin] (X1-[Orn(4R-OH,5R-OH)]T[Hyp][hTyr(3S-OH,4S-OH,3'-OSO3H)][Gln(3R-OH)][Pro(3S-OH,4S-Me)]; lactam 1-C)",128.6
4,COC(=O)[C@H]1[C@H]2C[C@@H]3c4[nH]c5cc(OC)ccc5c4CCN3C[C@H]2C[C@@H](OC(=O)c2cc(OC)c(OC)c(OC)c2)[C@@H]1OC [Reserpine],88.4

# The next lines start with the values.
row,FP (mP),SMILES
1,69.1,CC/C(=C(\c1ccccc1)c1ccc(OCCN(C)C)cc1)c1ccccc1 [Tamoxifen Citrate]
2,88.9,CN(C)CCCN1c2ccccc2Sc2ccc(Cl)cc21 [Chlorpromazine.HCl]
3,76.9,O=C(c1ccc(OCCN2CCCCC2)cc1)c1c(-c2ccc(O)cc2)sc2cc(O)ccc12 [Raloxifene.HCl]
4,82.4,C[C@@H](NCCCc1cccc(C(F)(F)F)c1)c1cccc2ccccc12 [Cinacalcet.HCl]
5,88.2,Clc1ccc(C(Cn2ccnc2)OCc2csc3c(Cl)cccc23)c(Cl)c1 (stereo not shown) [Sertaconazole]
6,76.1,OCCN1CCN(CCCN2c3ccccc3Sc3ccc(C(F)(F)F)cc32)CC1 [Fluphenazine.HCl]
7,83.7,COc1cc2ncnc(Nc3ccc(F)c(Cl)c3)c2cc1OCCCN1CCOCC1 [Gefitinib]

# Same assay, conditions: cTnISP primary screen, LOPAC 1280 library, single concentration 50 μmol/L
row,SMILES,FP (mP)
1,COc1cc(N2CCN(C)CC2)ccc1Nc1nccc(-c2cn(C)c3cnccc23)n1 [AZ 191],88.5
2,Cc1cc(CN)cc(C)c1NC(=O)c1ccc(-c2cc(Cl)ccc2Cl)o1 [CYM50358],84.1
3,Clc1ccc(C(c2ccc(Cl)cc2)n2cc[n+](CC(OCc3ccc(Cl)cc3Cl)c3ccc(Cl)cc3Cl)c2)cc1 (stereo not shown) [Calmidazolium chloride],83.6
4,OCCN1CCN(CCCN2c3ccccc3Sc3ccc(C(F)(F)F)cc32)CC1 [Fluphenazine dihydrochloride],87.3

# Second part, the molecule after the results:
row,FP (mP),SMILES
1,87,Cc1cc(CN2CCN(c3c(Br)cnc4nc(-c5ccc(N6CCN(C)CC6)cc5)[nH]c34)CC2)no1 [CCT 137690]
2,91.3,CN(C)CCCN1c2ccccc2Sc2ccc(Cl)cc21 [Chlorpromazine.HCl]
3,85.5,O=C(c1ccc(OCCN2CCCCC2)cc1)c1c(-c2ccc(O)cc2)sc2cc(O)ccc12 [Raloxifene.HCl]
4,89.6,Br.Cc1cc2nc(NCCCO)n(CC(=O)c3cc(C(C)(C)C)c(O)c(C(C)(C)C)c3)c2cc1C [CID2858522]
5,87.6,OCCN1CCN(CC/C=C2/c3ccccc3Sc3ccc(C(F)(F)F)cc32)CC1 [cis-(Z)-Flupenthixol dihydrochloride]
6,89.4,CCOC(=O)c1c(CSc2ccccc2)n(C)c2cc(Br)c(O)c(CN(C)C)c12.Cl [Arbidol hydrochloride]
7,85.6,NCCOc1cc(C(=O)Nc2cc(OCCN)c3ccccc3n2)nc(C(=O)Nc2cc(OCCN)c3ccccc3n2)c1 [Pyridostatin trifluoroacetate salt]
8,86.5,CSc1ccc2c(c1)C(N1CCN(C)CC1)Cc1ccccc1S2 (stereo not shown) [Methiothepin mesylate]
9,86.2,CN1CCN(CCCN2c3ccccc3Sc3ccc(Cl)cc32)CC1 [Prochlorperazine dimaleate]
10,88.6,O=C1NCN(c2ccccc2)C12CCN(CCCC(c1ccc(F)cc1)c1ccc(F)cc1)CC2 [Fluspirilene]

# Same assay, conditions: cTnISP primary screen, TOCRIScreen library, single concentration 50 μmol/L
row,SMILES,FP (mP)
1,COc1cc(N2CCN(C)CC2)ccc1Nc1nccc(-c2cn(C)c3cnccc23)n1 [AZ 191],83.4
2,CC(C)(Cc1ccc2ccccc2c1)NC[C@@H](O)COc1cccc(Cl)c1C#N.Cl [NPS 2143 hydrochloride],87.5
3,Cc1[nH]c(/C=C2\C(=O)Nc3ccc(S(=O)(=O)Cc4c(Cl)cccc4Cl)cc32)c(C)c1C(=O)N1CCC[C@@H]1CN1CCCC1 [PHA 665752],76.4
4,COc1ccc(N(C(=O)Oc2c(C)cccc2C)c2ccnc(Nc3ccc(N4CCN(C)CC4)cc3)n2)c(OC)c1 [WH-4-023],56.3
5,CCN1CCN(Cc2ccc(C(=O)Nc3ccc(C)c(Oc4ccc5c(c4)CC(=O)N5)c3)cc2C(F)(F)F)CC1.Cl.Cl [DDR1-IN-1 dihydrochloride],74.4
6,CCOc1cc(C(=O)N2CCC(N3CCN(C)CC3)CC2)ccc1Nc1ncc2c(n1)N(C1CCCC1)c1ccccc1C(=O)N2C [ERK5-IN-1],64.9
7,CS(=O)(=O)O.c1cc2c(cc1C1CCCCC1)c1c3n2CCNC3CCC1 (stereo not shown) [Tetrindole mesylate],65
8,CN1CCN(c2ccc(/C=C(\C#N)c3ccccc3Br)cc2)CC1.Cl.Cl [DG 172 dihydrochloride],81
9,Cc1c(-c2ccc(O)cc2)n(Cc2ccc(OCCN3CCCCCC3)cc2)c2ccc(O)cc12 [Bazedoxifene acetate],74.5
10,O=C(Nc1cc(C(F)(F)F)cc(C(F)(F)F)c1)c1cnc(Cl)nc1C(F)(F)F [SP 100030],70.3
11,COc1cc2nc(N3CCC(N4CCCCC4)CC3)nc(NC3CCCCCC3)c2cc1OC.Cl.Cl [C 021 dihydrochloride],87.1
12,Cc1cc(N2C[C@@H](C)N[C@@H](C)C2)ncc1-c1ccc(-c2nc3c(ccn3C)c(=O)[nH]2)cc1 [AZ 6102],83.4
13,CCCNc1ccc2ncc(-c3ccc4[nH]ncc4c3)n2n1.O=C(O)C(F)(F)F [CHR 6494 trifluoroacetate],81.9
14,CC(C)COCC(CN(Cc1ccccc1)c1ccccc1)N1CCCC1 (stereo not shown) [Bepridil hydrochloride],87
15,COc1cc(C(=O)NC2CCN(C)CC2)ccc1Nc1ncc2c(n1)N(C1CCCC1)CC(F)(F)C(=O)N2C [Ro 3280],81.8
16,c1ccc(Cn2c(-c3ccc(OC[C@H](C4CCNCC4)n4c(-c5ccccc5)nc5ccccc54)cc3)nc3ccccc32)cc1 [Deltarasin],87.7
17,Cn1c(NC[C@@H](N)Cc2ccccc2)nc(-c2ccncc2)c(-c2ccc3ccccc3c2)c1=O [AMG 548],90
18,CCCc1cc(C)[nH]c(=O)c1CNC(=O)c1cc(-c2ccc(N3CCN(C(C)C)CC3)nc2)cc2c1cnn2C(C)C [UNC 1999],80.5
19,Nc1ncnc2c1c(-c1cccc(OCc3ccccc3)c1)cn2C1CC(CN2CCCC2)C1 (stereo not shown) [NVP ADW 742],68.4

# Other lines, results leading:
row,FP (mP),SMILES
1,73.5,Cc1cccc(C)c1-n1c(=O)c2cnc(Nc3ccc(N4CCN(C)CC4)cc3)nc2n2c3ccccc3nc12 [TC-S 7003]
2,64,Cn1cc(-c2[nH]c3cc(NC(=O)[C@H](N)C4CCCCC4)cc4c3c2C=NNC4=O)cn1 [PF 477736]
3,89.5,CCN(CC)CCCC(C)Nc1nc(C)cc(Nc2ccc3nc(C)cc(N)c3c2)n1 (stereo not shown) [NSC 23766]
4,83.6,Cc1cc(CN2CCN(c3c(Br)cnc4nc(-c5ccc(N6CCN(C)CC6)cc5)[nH]c34)CC2)no1 [CCT 137690]
5,62.2,CC/C(=C(\c1ccccc1)c1ccc(OCCN(C)C)cc1)c1ccccc1 [Tamoxifen Citrate]
6,83.2,CCn1c(=O)c(-c2ccc(Cl)cc2Cl)cc2cnc(Nc3ccc(N4CCNCC4)c(F)c3)nc21 [FRAX 486]
7,88.2,Cc1c(NC(=O)OC[C@@H]2COCCN2)cn2ncnc(Nc3ccc4c(cnn4Cc4cccc(F)c4)c3)c12.Cl.Cl [BMS 599626 dihydrochloride]
8,79,COc1ccc(CCN(C)CCCOc2ccc(S(=O)(=O)c3c(C(C)C)c4ccccc4n3C)cc2)cc1OC.O=C(O)C(=O)O [SR 33805 oxalate]
9,84.6,COc1cc(N2CCC(O)CC2)ccc1Nc1cc(Nc2ccccc2S(=O)(=O)C(C)C)c2cc[nH]c2n1.Cl.Cl [Mps1-IN-1 dihydrochloride]
10,82.8,CCN(CC)CCCCN1c2ccccc2Oc2ccc(Cl)cc21.Cl [10-DEBC hydrochloride]
11,73.4,CCOc1cc2ncc(C#N)c(Nc3ccc(OCc4cccc(F)c4)c(Cl)c3)c2cc1NC(=O)/C=C/CN(C)C [HKI 357]
12,80.2,COc1ccc(Cl)cc1NC(=O)Nc1cc(C)nc2ccccc12 [PQ 401]
13,77.1,O[C@@H](CN1CCNCC1)Cn1c2ccc(Br)cc2c2cc(Br)ccc21 [Bax channel blocker]
14,80.4,OCCNC1CCCc2c1[nH]c1ccc(-c3ccccc3)cc21 (stereo not shown) [CASIN]
15,78.2,CN1CCN(CCCN2c3ccccc3Sc3ccc(Cl)cc32)CC1 [Prochlorperazine dimaleate]
16,77.8,CCN1CCN(Cc2ccc(-c3cc4c(N[C@H](C)c5ccccc5)ncnc4[nH]3)cc2)CC1 [AEE 788]
17,81.8,COc1cc2ncnc(Nc3ccc(F)c(Cl)c3)c2cc1OCCCN1CCOCC1 [Gefitinib]
18,89.2,COc1cc2c(Nc3ccc(NC(=O)c4ccccc4)cc3)ncnc2cc1OCCCN1CCOCC1 [ZM 447439]

# Same assay, conditions: cTnISP primary screen, TOCRIScreen library, single concentration 50 μmol/L; listed as Raloxifene hydrochloride
row,FP (mP),SMILES
1,87.9 mP and 82.1 mP,O=C(c1ccc(OCCN2CCCCC2)cc1)c1c(-c2ccc(O)cc2)sc2cc(O)ccc12 [Raloxifene.HCl]

# Target: interaction between cTnC and the anchoring region of cTnI (cTnIAR) (Homo sapiens, UniProt P63316)
# Assay: Fluorescence polarization HTS, binding and dose-response, cTnC/FAM-cTnIAR
# Conditions: cTnIAR primary screen, ENZO Screenwell library, single concentration 10 μmol/L
row,FP (mP),SMILES
1,118,Cc1cn[nH]c1 [Fomepizole]
2,58.8,[H]/N=C(\N/C(=N/[H])NCCCCCCNC(=N)NC(=N)Nc1ccc(Cl)cc1)Nc1ccc(Cl)cc1 [Chlorhexidine Dihydrochloride]

# Same assay, conditions: cTnIAR primary screen, LOPAC 1280 library, single concentration 10 μmol/L
row,SMILES,FP (mP)
1,O=C1c2c(O)ccc(O)c2C(=O)c2c(NCCNCCO)ccc(NCCNCCO)c21 [Mitoxantrone],57.1
2,O=C(O)c1ccc(-c2ccc(/C=C3\SC(=S)N(Cc4ccccc4)C3=O)o2)cc1 [Leukadherin-1],121.9

# Same assay, conditions: cTnIAR primary screen, TOCRIScreen library, single concentration 10 μmol/L
row,SMILES,FP (mP)
1,CCN1CCN(C(=O)Cc2ccc(Nc3ncc(F)c(Nc4ccc(C(=O)Nc5ccccc5Cl)cc4)n3)cc2)CC1 [TC-S 7010],108.3
2,Cc1ccc2[nH]c(=O)c(C3=NN(C(=O)CCC(=O)O)C(c4ccc(Br)cc4)C3)c(-c3ccccc3)c2c1 (stereo not shown) [DQP 1105],103

# Source: publication PMC10063609, “Discovery of novel cardiac troponin activators using fluorescence polarization-based high throughput screening assays” (Scientific Reports, 2023)
